The record followed here is US20230330120A1, “COMPOSITION FOR PREVENTING HAIR LOSS OR PROMOTING HAIR REGROWTH” (LG HOUSEHOLD & HEALTH CARE LTD., priority 2020, published 2023).

Like-named read-outs stand apart in the source and are kept apart here.

The test system of assay [1] is human-derived dermal papilla cells (DPCs). The assay can be described thus: Proliferation of dermal papilla cells (CCK-8). The class given is cell-based. The conditions noted are these: for activity at 2 µg/mL / activity at 20 µg/mL: read-out: Proliferation of dermal papilla cells (%). As for the experimental part:
The effect of promoting the proliferation of dermal papilla cells was investigated using human-derived dermal papilla cells (DPCs). The human-derived dermal papilla cells were purchased from PromoCell. The DPCs were cultured using a medium (follicle dermal papilla cell growth medium; PromoCell, Heidelberg, Germany) and a medium additive (supplement mix; PromoCell, Heidelberg, Germany) recommended by PromoCell under the condition of 37° C. and 5% CO2. The cultured DPCs were seeded onto a 96-well plate at 3,000 cells/well and then cultured for 24 hours under 0.1% serum condition. Then, the cultured cells were incubated for 1 day after treating with DMSO diluted with serum-free DMEM to 1:1000 (vehicle), 0.1 μg/mL minoxidil as a positive control group, or at 2 or 20 μg/mL valechlorine, tussilagone, periplocin, lysionotin, nitidine, lanosterol, engeletin, specnuezhenide, praeruptorin B, rotundic acid, sesamoside or polyphyllin VII. After the incubation, cell proliferation was evaluated by the CCK method. CCK-8 was treated to a medium at 1:10 and then incubated for 1 hour. 1 hour later, the absorbance of each well was measured at 450 nm. All experiments were repeated 3 times and the average of absorbance was calculated. The control group was set at 100%, and the results were represented as a percentage compared to the control group.

Assay [2] relates to β-catenin. The experiment in a line: Expression of β-catenin protein in dermal papilla cells (SDS-PAGE / anti-β-catenin antibody). Type of assay: cell-based, human. The conditions noted are these: for activity at 2 µg/mL / activity at 20 µg/mL: Homo sapiens, 24 h, read-out: Expression level of β-catenin protein (%). Here is the method:
Human dermal papilla cells were seeded onto a 6-well plate at 500,000 cells/well and then incubated for 1 day after treating with 2 or 20 μg/mL valechlorine, tussilagone, periplocin, lysionotin, nitidine, lanosterol, engeletin, specnuezhenide, praeruptorin B, rotundic acid, sesamoside or polyphyllin VII. After the incubation, the cells were lysed using an M-PER lysis buffer and a cell lysate of the same volume was loaded on SDS-PAGE gel. After transferring the cell lysate loaded on the SDS-PAGE gel to a nitrocellulose membrane, proteins were detected by attaching anti-β-catenin antibodies to the nitrocellulose membrane. GAPDH was used as a control for calibrating the quantity of proteins. The amount of β-catenin increased by the valechlorine, tussilagone, periplocin, lysionotin, nitidine, lanosterol, engeletin, specnuezhenide, praeruptorin B, rotundic acid, sesamoside or polyphyllin VII was investigated. The control group was set at 100%, and the results were represented as a percentage compared to the control group as shown in Table 5.

The subject of assay [3] is β-catenin. The assay is described as above. The class given is cell-based, human. To be noted: 0.5 μg/mL (positive control); control group = 100%.
[4] abbreviates: Homo sapiens, 24 h, 2 μg/mL, 1 day, control group = 100%.
Where [5] appears, read: Homo sapiens, 24 h, 20 μg/mL, 1 day, control group = 100%.
Where [6] appears, read: 2 μg/mL, 1 day, control group = 100%, GAPDH calibration.
[7] abbreviates: 20 μg/mL, 1 day, control group = 100%, GAPDH calibration.

`CC(C)=CCC[C@@H](C)[C@H]1CC[C@@]2(C)C3=C(CC[C@]12C)[C@@]1(C)CC[C@H](O)C(C)(C)[C@@H]1CC3` [Lanosterol]: the activity at 2 µg/mL is 143% in assay [1] (setting [4]) and 241% in the assay with β-catenin [2] (setting [6]). Besides, the activity at 20 µg/mL in assay [1] (setting [5]) amounted to 189%; with β-catenin [2] (setting [7]) it was 246%.

Consider `COc1ccc(-c2cc(=O)c3c(O)c(OC)c(O)c(OC)c3o2)cc1` [Lysionotin], for which the activity at 2 µg/mL came out at 164% in assay [1] (setting [4]) and 210% in the assay on β-catenin [2] (setting [6]). For the same molecule, the activity at 20 µg/mL in assay [1] (setting [5]) stood at 179%; in the assay on β-catenin [2] (setting [7]), 232%.

As for `Nc1cc(N2CCCCC2)nc(N)[n+]1[O-]` [Minoxidil, reference compound], the activity at 0.1 µg/mL in assay [1] (Homo sapiens, 24 h, 100 ng/ml (positive control), 1 day, control group = 100%) is 130%.

For `COc1cc2c[n+](C)c3c4cc5c(cc4ccc3c2cc1OC)OCO5` [Nitidine], the activity at 2 µg/mL is 155% in assay [1] (setting [4]) and 220% with β-catenin [2] (setting [6]). Besides, the activity at 20 µg/mL in assay [1] (setting [5]) stood at 181%; in the assay with β-catenin [2] (setting [7]), 262%.

On to `C/C=C(\C)C(=O)OC1c2c(ccc3ccc(=O)oc23)OC(C)(C)C1OC(=O)/C(C)=C/C` (stereo not drawn) [Praeruptorin B], for which the activity at 2 µg/mL amounted to 144% in assay [1] (Homo sapiens, 24 h) and 211% in the assay on β-catenin [2]. The activity at 20 µg/mL was found to be 173% in assay [1] (Homo sapiens, 24 h) and 250% in the assay on β-catenin [2].

Turning to `C[C@@H]1CC[C@]2(C(=O)O)CC[C@]3(C)C(=CC[C@@H]4[C@@]5(C)CC[C@H](O)[C@@](C)(CO)[C@@H]5CC[C@]43C)[C@@H]2[C@]1(C)O` [Rotundic acid], the activity at 2 µg/mL in assay [1] (setting [4]) was found to be 156%; with β-catenin [2] (setting [6]), 211%. Further, the activity at 20 µg/mL amounted to 183% in assay [1] (setting [5]) and 258% in the assay on β-catenin [2] (setting [7]).

`COC(=O)C1=CO[C@@H](O[C@@H]2O[C@H](CO)[C@@H](O)[C@H](O)[C@H]2O)[C@@H]2[C@@]3(C)O[C@H]3[C@@H](O)[C@]12O` [Sesamoside]: the values for the activity at 2 µg/mL (in assay [1] (setting [4]); with β-catenin [2] (setting [6])) were 168% and 245%, respectively. Further, the activity at 20 µg/mL in assay [1] (setting [5]) came to 194%; in the assay with β-catenin [2] (setting [7]) it was 295%.

On to `C/C=C1/[C@H](O[C@@H]2O[C@H](CO)[C@@H](O)[C@H](O)[C@H]2O)OC=C(C(=O)OC)[C@H]1CC(=O)OC[C@H]1O[C@@H](OCCc2ccc(O)cc2)[C@H](O)[C@@H](O)[C@@H]1O` [Specnuezhenide], for which the figures for the activity at 2 µg/mL (in assay [1] (setting [4]); in the assay on β-catenin [2] (setting [6])) were 150% and 216%, respectively. Moreover, the activity at 20 µg/mL in assay [1] (setting [5]) was 170%; with β-catenin [2] (setting [7]) it was 289%.

Consider `C=C1[C@H](OC(=O)/C=C(\C)CC)C[C@@H](C(C)C)[C@@H]2[C@@H]([C@H](C)OC(C)=O)C(=O)C[C@@H]12` [Tussilagone], for which the results for the activity at 2 µg/mL (in assay [1] (setting [4]); with β-catenin [2] (setting [6])) were 157% and 208%, respectively. Besides, the activity at 20 µg/mL in assay [1] (setting [5]) amounted to 178%; in the assay on β-catenin [2] (setting [7]), 253%.

Consider `CC(=O)OCC1=CO[C@@H](OC(=O)CC(C)C)[C@H]2C1=C[C@H](OC(=O)CC(C)C)[C@]2(O)CCl` [Valechlorine], for which, in assay [1] (Homo sapiens, 24 h), the activity at 2 µg/mL is 146% and the activity at 20 µg/mL came to 159%. In the assay on β-catenin [2], the activity at 2 µg/mL came to 217% and the activity at 20 µg/mL came to 234%.

Regarding Engeletin, the “Proliferation of dermal papilla cells (%)” value in assay [1] (2 μg/mL, 1 day, control group = 100%) is listed as 143.2%; in assay [1] (20 μg/mL, 1 day, control group = 100%), 188.1%. Besides, the “Expression level of β-catenin protein (%)” value in the assay on β-catenin [2] (setting [6]) was 231.1%; with β-catenin [2] (setting [7]), 276.3%.

B1: Wnt3a: Wnt3a protein (positive control group) which binds directly to the receptor of Wnt/β-catenin (protein, UniProt P56704 19-352, looked up)
Protein Wnt-3a: SYPIWWSLAVGPQYSSLGSQPILCASIPGLVPKQLRFCRNYVEIMPSVAEGIKIGIQECQHQFRGRRWNCTTVHDSLAIFGPVLDKATRESAFVHAIASAGVAFAVTRSCAEGTAAICGCSSRHQGSPGKGWKWGGCSEDIEFGGMVSREFADARENRPDARSAMNRHNNEAGRQAIASHMHLKCKCHGLSGSCEVKTCWWSQPDFRAIGDFLKDKYDSASEMVVEKHRESRGWVETLRPRYTYFKVPTERDLVYYEASPNFCEPNPETGSFGTRDRTCNVSSHGIDGCDLLCCGRGHNARAERRREKCRCVFHWCCYVSCQECTRVYDVHTCK
With B1, in the assay with β-catenin [3], the “Expression level of β-catenin protein (%)” value was 208.8%.
